Source: US20220023232A1, “USE OF CANNABINOIDS IN THE TREATMENT OF EPILEPSY” (GW Research Limited, priority 2019, published 2022)

Columns and labels:
seizures [1] = conditions: 200 mg/day, twelve institutionalized adult patients, open label; cited from earlier work
seizures [2] = conditions: mice, after pro-convulsant drugs or an electric current; cited from earlier work
[3] = tested on: secondary generalized epilepsy; conditions: eight adult patients; cited from earlier work
seizures [4] = conditions: 200 mg/day, four adult patients; cited from earlier work
[5] = tested on: epilepsy associated with KCNT1 mutation (EIMFS); test: Expanded access case study of highly purified CBD in a child with KCNT1 mutation associated EIMFS; type: in vivo, human
Description: The child was […] when they were enrolled in an expanded access compassionate use program for CBD. The patient was diagnosed with Epilepsy of Infancy with Migrating Focal Seizures (EIMFS).
This subject was treated with a highly purified extract of cannabidiol (CBD) obtained from a cannabis plant. Seizure frequency and severity was documented in seizure diaries at baseline (4-week pre-treatment period) and over the treatment period. At each visit quality of life changes, including mood, behaviour, and cognitive function were recorded in addition to global impression of change using a numerical scale.
The patient first presented with seizures on the first day of life. They experienced on average 14 seizures per day. The types of seizure that occurred were motor arrest; asymmetric tonic; clonic extremity movements, irregular breathing and cyanosis.
The patient had tried and failed seven different anti-epileptic drugs and at the time of treatment and continued on the ketogenic diet however their seizures remained refractory.
Pharmaceutical-grade plant-derived CBD oral solution was gradually titrated by 2 to 5 mg/kg increments up to a maximum dose of 25 mg/kg/day.
Laboratory testing for hematologic, liver, kidney function and concomitant AED levels was performed at baseline, and after every 4 weeks of CBD therapy.
The patient was treated for over three years and remains on treatment currently.

[6] = Solubility of drug substance in water; type: physicochemical
Excerpt: Sesame oil was selected as an excipient to solubilize the drug substance.

seizures [7] = conditions: rabbit, in vivo; cited from earlier work
[8] = one patient, oral CBD up to 25 mg/kg/day

In the case of `C=C(C)[C@@H]1CCC(C)=C[C@H]1c1c(O)cc(CCCCC)cc1O` [CBD, Cannabidiol], the control of seizures (seizures [1]) is given as “ineffective”, the prevention of seizures (seizures [2]) is given as “able to prevent seizures” and the “number of patients with marked reduction of seizures” value [3] is given as 4. The seizure freedom (seizures [4]) was “two of the four patients became seizure free”, the “demeanour and developmental milestones (caregiver documented)” value ([5]; after 6 months of treatment) was “more interactive and had attained new milestones including babbling, smiling, and fixing” and the “reduction in overall seizure frequency” value ([5]; after 16 weeks of treatment, 25 mg/kg/day, one patient) was 12%. The “side effects at maximum dose” value ([5]; after 16 weeks, 25 mg/kg/day) was “without side effects”, the “side effect on titration” value ([5]; initial 12 week period, CBD titrated too quickly) was “somnolence” and the “overall seizure frequency increase compared to baseline” value ([5]; initial 12 weeks of treatment, maximum dose of 25 mg/kg/day not reached, one patient) was 13%. For the same molecule, the seizure severity ([5]; one patient) was “clinically meaningful reduction in seizure severity”, the “reduction in Type C seizures (irregular breathing, cyanosis and clonic extremity movements)” value [5, 8] was 93% and the “reduction in Type D seizures (most severe, asymmetric tonic seizures)” value [5, 8] was 48%. The solubility in water [6] was “insoluble in water”.
In the case of `CCCCCc1cc(O)c2c(c1)OC(C)(C)[C@@H]1CCC(C)=C[C@@H]21` [THC, Tetrahydrocannabinol], the effect on convulsions (seizures [7]) is given as “pro-convulsant”.
